This is an account of results in patent US4537895A, “Isoquinoline derivatives” (EGYT Gyogyszervegyeszeti Gyar, priority 1982, dated 1985).

SMILES strings stand for the structures. Like-named read-outs stand apart in the source and are kept apart here. Where only a bound is given, the exact number is not on record here.

Data set [1] concerns decrease of the rectal temperature caused by reserpine. Nature of the data set: Test 6: reserpine-induced decrease of rectal temperature. Type of data set: in vivo. The settings on record: for TI (Test 6), LD/ED quotient: LD50 / ED of Test 6; for minimal effective dose: Mus musculus, sc, read-out: ED, lowest s.c. dose which still hinders the decrease of the rectal temperature caused by reserpine (Test 6). As for the experimental part: 6. The lowest s.c. dose which still hinders the decrease of the rectal temperature caused by the administration of a 1,6 umole/kg dose of reserpine.
(§1) The acute toxicity data are determined in mice. Tests 2-6 are also carried out in mice. The doses are expressed in micromole/kg. The therapeutical index (TI) is the LD/ED quotient.
(§2) Tests 2, 8, 9 and 10 are suitable for the evaluation of the dopaminerg stimulating effect of the test compounds (potential anti-parkinson agent). Tests 4, 5, 6 and 7 give information about the catecholamine-uptake inhibiting effect (potential antidepressive activity).

The next data set relates to stereotypy. Briefly: Test 8: induction of stereotypy. To be noted: Rattus norvegicus, sc, rats; ">" = inactive in the given dose; read-out: Lowest s.c. dose which still induces stereotypy (Test 8). Type of data set: in vivo. The procedure: 8. The lowest s.c. dose which still induces stereotypy, in rats.
(§3) Tests 7-10 are carried out in cats and rats, the doses are expressed in micromole/kg.
as §2

The test system of data set [2] is blood pressure and nictitating membrane. Briefly: Test 7: blood pressure and nictitating membrane effect. Type of data set: in vivo. To be noted: Felis catus, iv, cats; ">" = inactive in the given dose; read-out: Lowest i.v. dose which still increases the blood pressure and nictitating membrane effect (Test 7). The procedure:
as §3, §2

In data set [3] the test system is ptosis induced by tetrabenazine. Briefly: Test 5: inhibition of tetrabenazine-induced ptosis. The format is in vivo. To be noted: for TI (Test 5), LD/ED quotient: LD50 / ED of Test 5; for ED50: Mus musculus, sc, read-out: ED, s.c. dose which inhibits the ptosis induced by tetrabenazine in 50% of the mice (Test 5). As for the experimental part:
5. S.c. dose which inhibits the ptosis induced by a dose of 79 umole/kg of tetrabenazine, in 50% of the mice.
as §1, §2

Data set [4] relates to catalepsy induced by Haloperidol / tetrabenazine. Nature of the data set: Comparison of anti-haloperidol (Test 2) and anti-tetrabenazine (Test 4) activity. The format is in vivo, mice. The settings on record: ED Test 2 (haloperidol) : ED Test 4 (tetrabenazine). The procedure: (§4) 2. S.c. dose which inhibits the catalepsy induced by a 13 umole/kg dose of Haloperidol, in 50% of the mice.
(§5) 4. S.c. dose which inhibits the catalepsy induced by a 110 umole/kg dose of tetrabenazine, in 50% of the mice.
as §1
On comparing the dopaminerg type anti-haloperidol test and the anti-tetrabenazine activity being characteristic of the antidepressive effect the following can be stated:
The quotient of the ED values of Columns 2 and 4 is the highest for Compound I (55:13=4.2). […] The said quotient is high in the case of Nomifensine (1.6), Compound D (1.8), Compound E (2.7) and Compound F (1.7).

Data set [5] is described as follows: Acute toxicity, s.c., LD50. On the set-up: species or system mice. To be noted: mouse, in vivo, sc, mice, 96 hour observation. The procedure: as §1
In the next data set the test system is spontaneous motility. Briefly: Test 3: spontaneous motility. The format is in vivo. The settings on record: for TI (Test 3), LD/ED quotient: LD50 / ED of Test 3; for minimal effective dose: Mus musculus, ip. As for the experimental part:
3. Lowest i.p. dose which still increases or decreases the spontaneous motility of the mice.
as §1
In Test 3 "+=motility increase" and "-=motility decrease."

The subject of data set [6] is catalepsy induced by tetrabenazine. Briefly: Test 4: inhibition of tetrabenazine-induced catalepsy. To be noted: for TI (Test 4), LD/ED quotient: LD50 / ED of Test 4; for ED50: Mus musculus, sc, read-out: ED, s.c. dose which inhibits the catalepsy induced by tetrabenazine in 50% of the mice (Test 4). The format is in vivo. The procedure:
as §5, §1, §2

The subject of data set [7] is catalepsy induced by Haloperidol. Briefly: Test 2: inhibition of haloperidol-induced catalepsy. To be noted: for TI (Test 2), LD/ED quotient: LD50 / ED of Test 2; for ED50: Mus musculus, sc, read-out: ED, s.c. dose which inhibits the catalepsy induced by Haloperidol in 50% of the mice (Test 2). Type of data set: in vivo. The procedure:
as §4, §1, §2

A further data set deals with prolactine level. Nature of the data set: Test 10: decrease of prolactine level in ovariectomised rats. The format is in vivo. The settings on record: Rattus norvegicus, 96 h, after 4 days treatment with oestradiol 0.073 umole/kg, read-out: Dose which induces a significant decrease of the prolactine level (Test 10). As for the experimental part: 10. The dose which induces a significant decrease of the prolactine level after 4 days treatment with a dose of 0.073 umole/kg of oeastradiol, on three weeks earlier ovariectomised rats.
as §3, §2

Setting [8] is: read-out: ED, lowest i.p. dose which still decreases the spontaneous motility (Test 3, -).

Turning to `CN1Cc2c(NC(=O)CN3CCCC3)cccc2C(c2ccccc2)C1` (centres unmarked) [Compound A, 4-phenyl-2-methyl-8-pyrrolidino-acetylamino-1,2,3,4-tetrahydro-isoquinoline-dimaleate], the “TI (Test 6), LD/ED quotient” value in [1] is listed as 8. In addition, the minimal effective dose in data set [1] amounted to 86 µmol/kg; in the data set with stereotypy it was 89 µmol/kg; in [2] it was 5.2 µmol/kg; in the data set on spontaneous motility (setting [8]), 206 µmol/kg. Further, the “TI (Test 5), LD/ED quotient” value in [3] amounted to 15. The figures for the ED50 in data set [3], in data set [6] and in data set [7] were 43 µmol/kg, 62 µmol/kg and 86 µmol/kg, respectively. In data set [4], the “Quotient of the ED values of Columns 2 and 4” value (from here on “Quotient … of Columns 2 and 4”) is reported as 1,4. In [5], this molecule yielded an LD50 at 96 h of 653 µmol/kg. Moreover, the “TI (Test 3), LD/ED quotient” value in the data set on spontaneous motility is given as 3. The “TI (Test 4), LD/ED quotient” value in data set [6] stood at 11. Also, the “TI (Test 2), LD/ED quotient” value in data set [7] was found to be 8.

In the case of `CC(C)NCCC(=O)Nc1cccc2c1CN(C)CC2c1ccccc1` (centres unmarked) [Compound B, 4-phenyl-8-[3'-isopropylamino-propionyl-amino]-2-methyl-1,2,3,4-tetrahydroisoquinoline-maleate], in data set [1], the “TI (Test 6), LD/ED quotient” value amounted to 5. Besides, the minimal effective dose in [1] was 428 µmol/kg; in the data set on stereotypy, more than 178 µmol/kg; in data set [2] it was 4.3 µmol/kg; in the data set on spontaneous motility (setting [8]), 342 µmol/kg; in the data set with prolactine level it was 96 µmol/kg. The “TI (Test 5), LD/ED quotient” value in [3] amounted to 7. Further, the ED50 in [3] turned out to be 267 µmol/kg; in data set [6] it was 321 µmol/kg; in data set [7] it was 428 µmol/kg. The “Quotient … of Columns 2 and 4” value in data set [4] is 1,3. In data set [5], the LD50 at 96 h came out at 1920 µmol/kg. For the same molecule, in the data set on spontaneous motility, the “TI (Test 3), LD/ED quotient” value was 6. Besides, the “TI (Test 4), LD/ED quotient” value in [6] is on record as 6. Also, the “TI (Test 2), LD/ED quotient” value in data set [7] is recorded as 5.

For the molecule `CCCCNCC(=O)Nc1cccc2c1CN(C)CC2c1ccc(Cl)cc1` (centres unmarked) [Compound D, 8-butyl-amino-acetyl-amino-4-p-chloro-phenyl-2-methyl-1,2,3,4-tetrahydro-isoquinoline-maleate], the “TI (Test 6), LD/ED quotient” value in [1] is 64. For the same molecule, the minimal effective dose in data set [1] is 10 µmol/kg; with stereotypy, 64 µmol/kg; in data set [2], 1 µmol/kg; in the data set with spontaneous motility (read-out: ED, lowest i.p. dose which still increases or decreases the spontaneous motility (Test 3, no sign)), more than 40 µmol/kg; in the data set with prolactine level, 36 µmol/kg. Further, the “Therapeutical index in the anti-reserpine test compared with Nomifensine (in words)” value in data set [1] (anti-reserpine test) was “more favourable therapeutical index”. Moreover, in data set [3], the “TI (Test 5), LD/ED quotient” value came out at 82. Moreover, the results for the ED50 in data set [3], in data set [6] and in data set [7] were 7.8 µmol/kg, 27 µmol/kg and 48 µmol/kg, respectively. For the same molecule, the “Quotient … of Columns 2 and 4” value in data set [4] was 1,8. The same molecule returned a median lethal dose (LD50) at 96 h in data set [5] of 637 µmol/kg. Further, the “TI (Test 3), LD/ED quotient” value in the data set with spontaneous motility is given as less than 16. Also, the “TI (Test 4), LD/ED quotient” value in [6] was 24. In data set [7], the “TI (Test 2), LD/ED quotient” value worked out at 13.

On to `CCCCNC(=O)Nc1cccc2c1CN(C)CC2c1ccc(Cl)cc1` (centres unmarked) [Compound E, 8-n-butyl-carbamoyl-amino-4-p-chloro-phenyl-2-methyl-1,2,3,4-tetrahydro-isoquinoline-maleate], for which the minimal effective dose is more than 205 µmol/kg in [1]; 275 µmol/kg in the data set on stereotypy; 6.1 µmol/kg in data set [2]; 31 µmol/kg in the data set with spontaneous motility (setting [8]); 143 µmol/kg in the data set with prolactine level. The “TI (Test 5), LD/ED quotient” value in [3] was more than 66. Besides, the ED50 in [3] came out at 31 µmol/kg; in data set [6], 90 µmol/kg; in [7], 246 µmol/kg. In data set [4], the “Quotient … of Columns 2 and 4” value is 2,7. The molecule further registered an LD50 at 96 h in data set [5] of more than 2050 µmol/kg. In addition, the “TI (Test 3), LD/ED quotient” value in the data set on spontaneous motility is given as more than 66. Moreover, in data set [6], the “TI (Test 4), LD/ED quotient” value was more than 23. The “TI (Test 2), LD/ED quotient” value in data set [7] is given as more than 8.

For orientation: LD50 means the dose at which mortality reaches 50%. Read a high LD50 as lower toxicity.
